Experimental findings from publication PMC5862592, “CDK8/19 inhibition induces premature G1/S transition and ATR-dependent cell death in prostate cancer cells” (Oncotarget, 2018) are described below.

Common to all, as to assay: biochemical
Common to all, as to design: KINOMEscan active site-directed competition binding assay (DiscoveRx), 456 kinases, per cent of control at 300 nM
Holding throughout (details): read-out: Percent of Control (%)

Test [1] addresses NEK6 (Homo sapiens, UniProt Q9HC98). An outline of the steps:
(§1)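 Active site-directed competition binding (KINOMEscan) across a 456-kinase panel, compounds tested at 300 nmol/L.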

Test [2] addresses DDR1 (Homo sapiens, UniProt Q08345). In short, it runs like this: as §1
In test [3] the target is ERN1 (Homo sapiens, UniProt O75460). In short, it runs like this: as §1
Test [4] addresses MARK3 (Homo sapiens, UniProt P27448). In short, it runs like this: as §1
In test [5] the target is GSK3B (Homo sapiens, UniProt P49841). In short, it runs like this: as §1
Test [6] has as its target T1, AMPK-alpha1 (Homo sapiens, UniProt Q13131).
T1 construct: gene PRKAA1
In short, it runs like this: as §1

In test [7] the target is EPHA7 (Homo sapiens, UniProt Q15375). In short, it runs like this: as §1
In test [8] the target is PHKG2 (Homo sapiens, UniProt P15735). In short, it runs like this:
as §1

Test [9] concerns the target KIT(D816H) (Homo sapiens, UniProt P10721, D816H). In short, it runs like this:
as §1

Test [10] has as its target CDK2 (Homo sapiens, UniProt P24941). An outline of the steps: as §1
The target in test [11] is ABL2 (Homo sapiens, UniProt P42684). An outline of the steps: as §1
Test [12] concerns the target RIPK2 (Homo sapiens, UniProt O43353). An outline of the steps: as §1
Test [13] deals with T2, p38-delta (Homo sapiens, UniProt O15264).
T2 construct: gene MAPK13
In short, it runs like this:
as §1

In test [14] the target is T3, FAK (Homo sapiens, UniProt Q05397).
T3 construct: gene PTK2
In short, it runs like this:
as §1

Test [15] has as its target T4, SNARK (Homo sapiens, UniProt Q9H093).
T4 construct: gene NUAK2
In short, it runs like this: as §1

Test [16] addresses EGFR(G719C) (Homo sapiens, UniProt P00533, G719C). An outline of the steps: as §1
Test [17] has as its target EGFR(L861Q) (Homo sapiens, UniProt P00533, L861Q). In short, it runs like this: as §1
Test [18] addresses RIOK3 (Homo sapiens, UniProt O14730). An outline of the steps:
as §1

The target in test [19] is T5, BRK (Homo sapiens, UniProt Q13882).
T5 construct: gene PTK6
An outline of the steps:
as §1

Test [20] addresses T6, DCAMKL2 (Homo sapiens, UniProt Q8N568).
T6 construct: gene DCLK2
In short, it runs like this: as §1

The target of test [21] is AKT2 (Homo sapiens, UniProt P31751). An outline of the steps: as §1
Test [22] concerns the target EPHB6 (Homo sapiens, UniProt O15197). In short, it runs like this:
as §1

The structures appear in SMILES notation. Read-outs that look alike come from different tables or passages of the source.

T3 sequence (Q05397 whole entry): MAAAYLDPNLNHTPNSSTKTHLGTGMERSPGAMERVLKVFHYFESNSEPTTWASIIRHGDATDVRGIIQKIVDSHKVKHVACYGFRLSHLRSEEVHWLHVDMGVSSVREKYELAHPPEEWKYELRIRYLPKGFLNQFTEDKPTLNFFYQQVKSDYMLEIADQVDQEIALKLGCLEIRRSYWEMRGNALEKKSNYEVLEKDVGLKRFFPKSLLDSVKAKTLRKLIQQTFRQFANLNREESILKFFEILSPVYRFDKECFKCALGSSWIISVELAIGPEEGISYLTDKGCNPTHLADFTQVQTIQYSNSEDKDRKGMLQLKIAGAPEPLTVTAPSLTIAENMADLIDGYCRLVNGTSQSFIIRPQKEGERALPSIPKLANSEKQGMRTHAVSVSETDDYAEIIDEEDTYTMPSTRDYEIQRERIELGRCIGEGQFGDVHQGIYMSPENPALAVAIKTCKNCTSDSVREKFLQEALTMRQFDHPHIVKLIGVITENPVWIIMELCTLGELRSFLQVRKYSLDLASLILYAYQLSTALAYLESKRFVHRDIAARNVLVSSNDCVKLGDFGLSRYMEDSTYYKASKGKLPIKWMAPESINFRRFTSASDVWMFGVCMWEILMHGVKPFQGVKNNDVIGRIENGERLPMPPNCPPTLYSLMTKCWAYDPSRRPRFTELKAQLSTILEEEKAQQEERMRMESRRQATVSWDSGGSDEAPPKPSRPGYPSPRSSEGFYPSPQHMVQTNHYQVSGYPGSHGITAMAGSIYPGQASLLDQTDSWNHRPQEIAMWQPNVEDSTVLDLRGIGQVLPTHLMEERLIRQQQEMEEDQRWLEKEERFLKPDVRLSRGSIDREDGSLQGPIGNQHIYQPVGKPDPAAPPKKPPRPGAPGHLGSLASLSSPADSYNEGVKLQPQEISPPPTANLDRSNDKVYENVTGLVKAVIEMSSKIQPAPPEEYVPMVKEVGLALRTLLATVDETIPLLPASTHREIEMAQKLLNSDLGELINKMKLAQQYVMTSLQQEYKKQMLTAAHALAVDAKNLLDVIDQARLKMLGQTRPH
Sequence of EGFR(G719C) (P00533 whole entry G719C): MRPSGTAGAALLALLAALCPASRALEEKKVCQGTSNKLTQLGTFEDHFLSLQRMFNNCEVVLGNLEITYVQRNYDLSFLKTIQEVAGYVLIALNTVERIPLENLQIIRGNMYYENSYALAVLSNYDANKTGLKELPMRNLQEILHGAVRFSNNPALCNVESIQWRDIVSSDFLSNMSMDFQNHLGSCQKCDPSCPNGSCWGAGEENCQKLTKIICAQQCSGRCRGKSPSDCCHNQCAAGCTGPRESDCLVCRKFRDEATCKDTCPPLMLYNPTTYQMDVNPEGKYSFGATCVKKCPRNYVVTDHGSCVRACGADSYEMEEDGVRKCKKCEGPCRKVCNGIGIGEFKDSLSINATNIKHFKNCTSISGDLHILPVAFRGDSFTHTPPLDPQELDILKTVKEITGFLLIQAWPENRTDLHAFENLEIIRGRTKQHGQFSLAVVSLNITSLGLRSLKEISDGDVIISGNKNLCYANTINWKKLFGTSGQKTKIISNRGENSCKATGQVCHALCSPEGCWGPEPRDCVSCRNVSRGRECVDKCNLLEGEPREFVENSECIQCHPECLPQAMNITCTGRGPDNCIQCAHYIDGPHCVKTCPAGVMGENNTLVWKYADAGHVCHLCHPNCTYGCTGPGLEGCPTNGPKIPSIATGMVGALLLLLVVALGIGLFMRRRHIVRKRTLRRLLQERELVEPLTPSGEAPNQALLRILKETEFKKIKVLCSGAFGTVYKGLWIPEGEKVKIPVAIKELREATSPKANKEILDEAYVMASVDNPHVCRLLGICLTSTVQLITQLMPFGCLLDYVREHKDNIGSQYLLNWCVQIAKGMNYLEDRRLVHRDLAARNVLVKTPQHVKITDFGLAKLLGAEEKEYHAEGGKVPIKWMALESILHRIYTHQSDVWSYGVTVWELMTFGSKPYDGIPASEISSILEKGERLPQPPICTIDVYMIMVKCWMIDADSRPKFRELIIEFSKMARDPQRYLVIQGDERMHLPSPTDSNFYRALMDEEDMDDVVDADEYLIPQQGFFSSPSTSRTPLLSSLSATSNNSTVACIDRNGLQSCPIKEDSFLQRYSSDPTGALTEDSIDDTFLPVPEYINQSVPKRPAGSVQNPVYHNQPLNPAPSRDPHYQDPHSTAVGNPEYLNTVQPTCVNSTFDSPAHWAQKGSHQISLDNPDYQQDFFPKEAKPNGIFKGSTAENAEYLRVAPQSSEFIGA
Sequence of MARK3 (P27448 whole entry): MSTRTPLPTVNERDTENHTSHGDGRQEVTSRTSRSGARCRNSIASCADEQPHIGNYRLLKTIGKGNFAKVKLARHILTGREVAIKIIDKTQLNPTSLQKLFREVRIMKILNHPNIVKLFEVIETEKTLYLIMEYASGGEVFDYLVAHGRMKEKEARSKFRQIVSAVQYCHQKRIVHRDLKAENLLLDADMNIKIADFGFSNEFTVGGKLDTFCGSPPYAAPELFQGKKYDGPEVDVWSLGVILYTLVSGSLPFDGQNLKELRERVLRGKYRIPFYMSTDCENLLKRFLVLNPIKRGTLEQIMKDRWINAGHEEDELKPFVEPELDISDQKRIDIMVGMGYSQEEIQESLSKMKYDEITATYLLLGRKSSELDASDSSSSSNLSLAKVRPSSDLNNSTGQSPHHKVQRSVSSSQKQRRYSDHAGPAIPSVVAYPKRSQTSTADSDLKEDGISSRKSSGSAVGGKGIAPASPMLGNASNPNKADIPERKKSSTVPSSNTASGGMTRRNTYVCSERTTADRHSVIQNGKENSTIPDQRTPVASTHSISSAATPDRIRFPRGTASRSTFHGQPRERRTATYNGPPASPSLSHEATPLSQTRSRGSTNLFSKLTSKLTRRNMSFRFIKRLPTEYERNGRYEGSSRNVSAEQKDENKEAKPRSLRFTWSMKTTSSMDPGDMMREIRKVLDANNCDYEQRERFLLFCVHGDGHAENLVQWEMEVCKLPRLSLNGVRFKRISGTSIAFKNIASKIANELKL
T5 sequence (Q13882 whole entry): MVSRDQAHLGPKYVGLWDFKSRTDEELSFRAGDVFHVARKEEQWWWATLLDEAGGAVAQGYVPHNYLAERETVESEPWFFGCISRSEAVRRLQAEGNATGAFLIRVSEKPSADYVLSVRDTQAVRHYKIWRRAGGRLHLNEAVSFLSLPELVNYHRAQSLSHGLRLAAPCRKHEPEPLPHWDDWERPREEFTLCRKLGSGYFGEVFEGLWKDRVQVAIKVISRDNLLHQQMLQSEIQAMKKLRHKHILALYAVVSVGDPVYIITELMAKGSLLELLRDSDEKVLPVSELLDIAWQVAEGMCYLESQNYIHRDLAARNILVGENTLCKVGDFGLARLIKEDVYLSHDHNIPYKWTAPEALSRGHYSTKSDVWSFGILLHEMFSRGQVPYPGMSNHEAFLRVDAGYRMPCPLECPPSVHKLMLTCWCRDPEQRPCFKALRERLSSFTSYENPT
Sequence of DDR1 (Q08345 whole entry): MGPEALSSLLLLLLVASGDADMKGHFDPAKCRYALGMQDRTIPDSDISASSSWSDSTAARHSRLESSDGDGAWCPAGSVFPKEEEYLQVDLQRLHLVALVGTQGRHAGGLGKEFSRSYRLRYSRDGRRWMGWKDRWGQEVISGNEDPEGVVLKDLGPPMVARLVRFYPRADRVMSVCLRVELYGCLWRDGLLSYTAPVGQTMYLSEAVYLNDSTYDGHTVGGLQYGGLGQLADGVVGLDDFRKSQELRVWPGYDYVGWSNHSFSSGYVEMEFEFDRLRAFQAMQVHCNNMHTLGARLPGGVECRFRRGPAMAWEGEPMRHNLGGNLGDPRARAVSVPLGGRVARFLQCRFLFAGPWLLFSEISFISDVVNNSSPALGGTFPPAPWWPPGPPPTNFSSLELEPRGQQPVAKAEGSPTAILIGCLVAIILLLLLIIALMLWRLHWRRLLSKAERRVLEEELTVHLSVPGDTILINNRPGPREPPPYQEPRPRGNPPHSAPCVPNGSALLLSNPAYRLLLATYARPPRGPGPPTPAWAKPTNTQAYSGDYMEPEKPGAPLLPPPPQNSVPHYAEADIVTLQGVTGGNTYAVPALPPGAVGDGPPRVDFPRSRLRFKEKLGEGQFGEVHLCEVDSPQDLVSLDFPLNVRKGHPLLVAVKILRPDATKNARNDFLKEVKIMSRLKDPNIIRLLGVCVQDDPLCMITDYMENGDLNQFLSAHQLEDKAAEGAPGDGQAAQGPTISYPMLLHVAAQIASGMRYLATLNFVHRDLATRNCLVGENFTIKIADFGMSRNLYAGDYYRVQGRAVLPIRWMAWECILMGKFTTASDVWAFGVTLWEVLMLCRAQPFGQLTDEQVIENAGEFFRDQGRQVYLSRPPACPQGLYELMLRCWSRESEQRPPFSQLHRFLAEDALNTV
Sequence of RIPK2 (O43353 whole entry): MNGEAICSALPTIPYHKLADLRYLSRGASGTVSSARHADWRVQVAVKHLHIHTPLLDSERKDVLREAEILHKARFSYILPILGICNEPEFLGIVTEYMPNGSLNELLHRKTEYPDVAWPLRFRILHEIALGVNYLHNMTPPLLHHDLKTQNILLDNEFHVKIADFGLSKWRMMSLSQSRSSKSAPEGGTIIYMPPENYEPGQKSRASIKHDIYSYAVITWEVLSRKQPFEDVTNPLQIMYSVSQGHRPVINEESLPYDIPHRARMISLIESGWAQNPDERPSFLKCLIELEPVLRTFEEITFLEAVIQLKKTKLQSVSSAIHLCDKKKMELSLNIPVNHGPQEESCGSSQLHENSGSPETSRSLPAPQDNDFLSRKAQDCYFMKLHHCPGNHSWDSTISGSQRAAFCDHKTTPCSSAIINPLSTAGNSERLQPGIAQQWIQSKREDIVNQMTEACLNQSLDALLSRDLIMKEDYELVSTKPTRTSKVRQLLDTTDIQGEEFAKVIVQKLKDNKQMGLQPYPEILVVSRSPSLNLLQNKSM

As for `O=C(/C=C/c1cnccc1-c1ccc(F)cc1)Nc1ccc(CCc2nnco2)cc1` [T-418, (2E)-3-(4-(4-fluorophenyl)pyridin-3-yl)-N-(4-(2-(1,3,4-oxadiazol-2-yl)ethyl)phenyl)acrylamide], the remaining binding at 0.3 µM came out at 98% in [1] (sheet T-418); 100% in test [2] (sheet T-418); 100% in test [3] (sheet T-418); 80% in test [4] (sheet T-418); 98% in test [5] (sheet T-418); 100% in test [6] (sheet T-418). In addition, the remaining binding at 0.3 µM in [7] (sheet T-418) came to 96%; in [8] (sheet T-418) it was 71%; in [9] (sheet T-418) it was 74%; in [10] (sheet T-418), 92%; in [11] (sheet T-418), 90%; in test [12] (sheet T-418) it was 100%. The remaining binding at 0.3 µM in test [13] (sheet T-418) was found to be 100%; in [14] (sheet T-418), 80%; in [15] (sheet T-418), 60%; in test [16] (sheet T-418), 72%; in test [17] (sheet T-418), 86%; in test [18] (sheet T-418), 78%. Moreover, the remaining binding at 0.3 µM in test [19] (sheet T-418) amounted to 87%; in [20] (sheet T-418), 100%; in [21] (sheet T-418), 100%; in test [22] (sheet T-418), 93%.
Consider `Cc1ncccc1Oc1sc(C(N)=O)c2c1-c1c(cnn1C)CC2` [T-474, 1-methyl-8-((2-methylpyridin-3-yl)oxy)-4,5-dihydro-1H-thieno[3,4-g]indazole-6-carboxamide], for which the remaining binding at 0.3 µM in test [1] is 100%; in test [2], 100%; in [3] it was 89%; in [4], 88%; in test [5], 94%; in test [6], 100%. The remaining binding at 0.3 µM in test [7] worked out at 94%; in test [8], 88%; in test [9], 78%; in test [10] it was 98%; in test [11] it was 100%; in test [12], 100%. For the same compound, the remaining binding at 0.3 µM stood at 96% in test [13]; 88% in [14]; 74% in test [15]; 99% in test [16]; 91% in test [17]; 74% in [18]. Also, the remaining binding at 0.3 µM in test [19] came to 100%; in test [20], 100%; in test [21], 100%; in [22], 86%.
